According to US12522596B2, “Compounds as GLP-1R agonists” (Terns Pharmaceuticals, Inc., priority 2021, dated 2026):
Where two headings read alike, the source gives them in different places.

Assay: Pharmacokinetics in hGLP-1R mice after oral dosing
Format: in vivo, male C57BL/6J hGLP-1R mouse
Conditions: male, C57BL/6J hGLP-1R, mouse, plasma, po; for AUC0-inf: read-out: AUC0-inf; for MRT inf: read-out: MRT0-inf; for MRT last: read-out: MRT0-last; for concentration at 120 min: hGLP-1R mouse plasma collected at 120 min (IPGTT cohort)
Experimental: IPGTT (120 min)—PK bleeding: 40 μL blood samples (all treatment groups) were collected from mice under the jaw at IPGTT-120 min after blood glucose measurement into pre-chilled EDTA-2K tubes. Blood samples were processed for plasma by centrifugation at 4° C., 3200×g for 10 min. 15 μL plasma was stored at −80° C. for PK analysis. From 4 mice in Group 7 of the PD cohort, whole brain was collected after blood is harvested at 120 min post dose, rinsed with saline and patted dry and placed into a pre-weighed tube and stored at −80° C. collected for PK analysis.
PK bleeding group design is described in Table 9.
PK bleeding: 30 μL blood was collected at 0.25, 0.5, 1, 2, 4, and 8 h. Blood samples were processed for plasma by centrifugation at 4° C., 3200×g for 10 min. 12 μL plasma was collected at −80° C. for further analysis. From 3 mice in Group 7 of the PK cohort, whole brain was collected after blood is harvested at 8 hr post dose, rinsed with saline and patted dry and placed into a pre-weighed tube and stored at −80° C. collected for PK analysis.
For plasma: An aliquot of 3 μL sample was protein precipitated with 60 μL internal standard (100 ng/mL Labetalol & 100 ng/ml Dexamethasone & 100 ng/ml Tolbutamide & 100 ng/mL Verapamil & 100 ng/ml Glyburide & 100 ng/ml Celecoxib in ACN) and then the mixture was vortex-mixed for 10 min at 800 rpm and centrifuged for 15 min at 3220×g, 4° C.
The linear/log trapezoidal rule was applied in obtaining the PK parameters. Individual plasma concentration values that were below the lower limit of quantitation (LOQ) were excluded from the PK parameter calculation. The nominal dose levels and nominal sampling times were used in the calculation of all pharmacokinetic parameters.

[1] = 0.3 mg/kg, hGLP-1R mouse plasma, PO 0.3 mg/kg, read-out: Mean Concentration
[2] = 0.3 mg/kg, hGLP-1R mouse plasma, PO 0.3 mg/kg, individual animals, read-out: Concentration
[3] = 0.3 mg/kg, hGLP-1R mouse plasma, PO 0.3 mg/kg, mean
[4] = 1 mg/kg, hGLP-1R mouse plasma, PO 1 mg/kg, individual animals, read-out: Concentration
[5] = 1 mg/kg, hGLP-1R mouse plasma, PO 1 mg/kg, read-out: Mean Concentration
[6] = 1 mg/kg, hGLP-1R mouse plasma, PO 1 mg/kg, individual mice
[7] = 1 mg/kg, hGLP-1R mouse plasma, PO 1 mg/kg, mean
[8] = 3 mg/kg, hGLP-1R mouse plasma, PO 3 mg/kg, read-out: Mean Concentration
[9] = 3 mg/kg, hGLP-1R mouse plasma, PO 3 mg/kg, mean

Compound `N#Cc1ccc(COc2cccc(C3CCN(Cc4nc5ccc(C(=O)O)cc5n4Cc4cncs4)CC3)n2)c(F)c1` [Compound 2] has a concentration at 0.5 h [1] of 80.6 ng/mL, a concentration at 1 h [2] of 43.3 ng/mL and a concentration at 1 h [1] of 49.4 ng/mL. The concentration at 2 h (0.3 mg/kg, hGLP-1R mouse plasma, PO 0.3 mg/kg) was 10.6 ng/mL, the concentration at 4 h [1] was 3.74 ng/mL and the concentration at 8 h [2] was 2.34 ng/mL. It also gave a concentration at 8 h [1] of 1.99 ng/mL, an AUC0-inf (0.3 mg/kg, hGLP-1R mouse plasma, PO 0.3 mg/kg, individual mice) of 124 ng·h/mL and an AUC(0-t) (0.3 mg/kg, hGLP-1R mouse plasma, PO 0.3 mg/kg, individual mice, read-out: AUC0-last) of 117 ng·h/mL. It also gave a Cmax (0.3 mg/kg, hGLP-1R mouse plasma, PO 0.3 mg/kg, individual mice, read-out: Cmax) of 63.4 ng/mL, a Tmax (0.3 mg/kg, hGLP-1R mouse plasma, PO 0.3 mg/kg, individual mice, read-out: Tmax) of 0.5 h and an AUC0-inf [3] of 111 ng·h/mL. For the same compound, the AUC(0-t) (0.3 mg/kg, hGLP-1R mouse plasma, PO 0.3 mg/kg, mean, read-out: AUC0-last) was 107 ng·h/mL, the Cmax (0.3 mg/kg, hGLP-1R mouse plasma, PO 0.3 mg/kg, mean, read-out: Cmax) was 82.7 ng/mL and the MRT inf [3] was 1.7 h. The MRT last [3] was 1.4 h, the half-life (0.3 mg/kg, hGLP-1R mouse plasma, PO 0.3 mg/kg, mean, read-out: T1/2 (converted)) was 1.4 h and the Tmax (0.3 mg/kg, hGLP-1R mouse plasma, PO 0.3 mg/kg, mean, read-out: Tmax) was 0.417 h. It also gave an AUC(0-t) (1 mg/kg, hGLP-1R mice, total, PO 1.0 mg/kg, read-out: AUClast Mean) of 390 ng·h/mL, a Cmax (1 mg/kg, hGLP-1R mice, total, PO 1.0 mg/kg, read-out: Cmax Mean) of 283 ng/mL and a half-life (1 mg/kg, hGLP-1R mice, total, PO 1.0 mg/kg, read-out: T1/2 (converted)) of 1.42 h. The Tmax (1 mg/kg, hGLP-1R mice, total, PO 1.0 mg/kg, read-out: Tmax Median) was 0.5 h, the concentration at 120 min (1 mg/kg, PO 1 mg/kg, read-out: Mean Concentration) was 69.8 ng/mL and the concentration at 0.25 h [4] was 320 ng/mL. The concentration at 0.25 h [5] was 251 ng/mL, the concentration at 0.5 h [4] was 329 ng/mL and the concentration at 0.5 h [5] was 283 ng/mL. It also gave a concentration at 1 h [4] of 252 ng/mL, a concentration at 1 h [5] of 197 ng/mL and a concentration at 2 h (1 mg/kg, hGLP-1R mouse plasma, PO 1 mg/kg) of 48.6 ng/mL. The concentration at 4 h [4] was 7.58 ng/mL, the concentration at 4 h [5] was 7.51 ng/mL and the concentration at 8 h [5] was 4.73 ng/mL. The AUC0-inf [6] was 507 ng·h/mL, the AUC(0-t) (1 mg/kg, hGLP-1R mouse plasma, PO 1 mg/kg, individual mice, read-out: AUC0-last) was 498 ng·h/mL and the Cmax (1 mg/kg, hGLP-1R mouse plasma, PO 1 mg/kg, individual mice, read-out: Cmax) was 329 ng/mL. It also gave an MRT inf [6] of 1.47 h, an MRT last [6] of 1.32 h and a half-life (1 mg/kg, hGLP-1R mouse plasma, PO 1 mg/kg, individual mice, read-out: T1/2 (converted)) of 1.28 h. It also gave a Tmax (1 mg/kg, hGLP-1R mouse plasma, PO 1 mg/kg, individual mice, read-out: Tmax) of 0.5 h, an AUC0-inf [7] of 400 ng·h/mL and an AUC(0-t) (1 mg/kg, hGLP-1R mouse plasma, PO 1 mg/kg, mean, read-out: AUC0-last) of 390 ng·h/mL. The Cmax (1 mg/kg, hGLP-1R mouse plasma, PO 1 mg/kg, mean, read-out: Cmax) was 283 ng/mL, the MRT inf [7] was 1.57 h and the MRT last [7] was 1.35 h. For the same compound, the half-life (1 mg/kg, hGLP-1R mouse plasma, PO 1 mg/kg, mean, read-out: T1/2 (converted)) was 1.42 h, the Tmax (1 mg/kg, hGLP-1R mouse plasma, PO 1 mg/kg, mean, read-out: Tmax) was 0.5 h and the Tmax (3 mg/kg, hGLP-1R mice, oral, across the doses tested (0.3, 1 and, for Compound 2, 3 mg/kg), read-out: median Tmax) was 0.5 h. It also gave an AUC(0-t) (3 mg/kg, hGLP-1R mice, total, PO 3.0 mg/kg, read-out: AUClast Mean) of 2440 ng·h/mL, a Cmax (3 mg/kg, hGLP-1R mice, total, PO 3.0 mg/kg, read-out: Cmax Mean) of 1820 ng/mL and a half-life (3 mg/kg, hGLP-1R mice, total, PO 3.0 mg/kg, read-out: T1/2 (converted)) of 2.03 h. It also gave a Tmax (3 mg/kg, hGLP-1R mice, total, PO 3.0 mg/kg, read-out: Tmax Median) of 0.5 h, a concentration at 120 min (3 mg/kg, PO 3 mg/kg, read-out: Mean Concentration) of 277 ng/mL and a concentration at 0.25 h [8] of 1570 ng/mL. For the same compound, the concentration at 0.5 h [8] was 1790 ng/mL, the concentration at 1 h [8] was 990 ng/mL and the concentration at 2 h (3 mg/kg, hGLP-1R mouse plasma, PO 3 mg/kg) was 304 ng/mL. For the same compound, the concentration at 4 h [8] was 84.4 ng/mL, the concentration at 8 h (3 mg/kg, hGLP-1R mouse plasma, PO 3 mg/kg, individual animals, read-out: Concentration) was 92.1 ng/mL and the concentration at 8 h [8] was 47.5 ng/mL. It also gave an MRT last (3 mg/kg, hGLP-1R mouse plasma, PO 3 mg/kg, individual mice) of 2.04 h, a Tmax (3 mg/kg, hGLP-1R mouse plasma, PO 3 mg/kg, individual mice, read-out: Tmax) of 0.5 h and an AUC0-inf [9] of 2620 ng·h/mL. The AUC(0-t) (3 mg/kg, hGLP-1R mouse plasma, PO 3 mg/kg, mean, read-out: AUC0-last) was 2440 ng·h/mL, the Cmax (3 mg/kg, hGLP-1R mouse plasma, PO 3 mg/kg, mean, read-out: Cmax) was 1820 ng/mL and the MRT inf [9] was 2.64 h. The MRT last [9] was 1.66 h, the half-life (3 mg/kg, hGLP-1R mouse plasma, PO 3 mg/kg, mean, read-out: T1/2 (converted)) was 2.03 h and the Tmax (3 mg/kg, hGLP-1R mouse plasma, PO 3 mg/kg, mean, read-out: Tmax) was 0.417 h. It also gave a half-life (hGLP-1R male mice, oral, across doses, read-out: terminal T1/2) of under 2 h.
